Experimental data: patent publication EP0050407A1, “3,5-Disubstituted-1,2,4-triazole compounds, processes for their preparation and pharmaceutical compositions containing them” (GLAXO GROUP LIMITED, priority 1980, dated 1982)
Counter-ions that a name gives are not always drawn.

Assays:
[1] = tested on: secretion of gastric acid; experiment: perfused rat stomach test (inhibition of gastric acid secretion stimulated via histamine receptors); assay type: in vivo
From the text: Certain novel heterocyclic derivatives have now been found which have potent activity as H2-antagonists.

rats = experiment: toxicity in rats; assay type: in vivo
[2] = administered intravenously to rats at doses of at least twice their ED50 values

Compound	ED50 [1] [mg/kg]	toxic effects (rats; [2])	toxic effects (rats; administered orally to rats at a dose of 400 mg/kg)
CS(=O)(=O)Cc1n[nH]c(CCCCOc2cccc(CN3CCCCC3)c2)n1 [Example 7, 3-(Methylsulphonyl)methyl-5-[4-[3-(1-piperidinylmethyl)phenoxy]butyl]-lH-l,2,4-triazole]	< 0.63	no toxic effects	
CC(O)c1n[nH]c(CCCCOc2cccc(CN3CCCCC3)c2)n1 (stereo not shown) [2(e), 5-[4-[3-(1-piperidinylmethyl)phenoxy]butyl]-1H-1,2,4-triazole-3-(1-ethanol)oxalate (1:2)]	< 0.63		
OCc1n[nH]c(CCCCOc2cccc(CN3CCCCC3)c2)n1 [Example 6]	< 0.63		no toxic effects
O=Cc1n[nH]c(CCCCOc2cccc(CN3CCCCC3)c2)n1 [Example 8, 5-[4-[3-(1-Piperidinylmethyl)phenoxy]butyl]-1H-1,2,4-triazole-3-carboxaldehyde hydrate]	< 0.63		
CC(=O)OCc1n[nH]c(CCCCOc2cccc(CN3CCCCC3)c2)n1 [Example 3, 5-[4-[3-(1-Piperidinylmethyl)phenoxy]butyl]-1H-1,2,4-triazole-3-methanol acetate(ester)fumarate]	< 0.63		
ON=Cc1n[nH]c(CCCCOc2cccc(CN3CCCCC3)c2)n1 [Example 9, 5-[4-[3-(1-Piperidinylmethyl)phenoxy]butyl]-1H-1,2,4,- triazole-3-carboxaldehyde oxime]	< 0.63	no toxic effects	
OCCc1n[nH]c(CCCCOc2cccc(CN3CCCCC3)c2)n1 [2(a), 5-[4-[3-(1-Piperidinylmethyl)phenoxy]butyl]-1H-1,2,4-triazole-3-(2-ethanol) maleate (1:2)]	< 0.63		
